Measured values published in patent publication US10004701B2, “Methods and compositions for treating infection” (UNIVERSITY OF ROCHESTER, priority 2012, dated 2018).
Where a name gives a salt, the structure may show the parent alone. Read-outs that look alike come from different tables or passages of the source.

Tests used:
Assay in all cases: AK assay 384-well format, Prestwick library screening
[1] = system: S. aureus strain USA300-0114; format: cell-based, Staphylococcus aureus; conditions: 50 μM final drug concentration; for fold induction at 50 µM: Staphylococcus aureus, USA300, 3 h
E. cloacae = format: cell-based, Enterobacter cloacae; conditions: 50 μM final drug concentration; for fold induction at 50 µM: Enterobacter cloacae, 3 h
P. aeruginosa = format: cell-based, Pseudomonas aeruginosa; conditions: 50 μM final drug concentration; for fold induction at 50 µM: Pseudomonas aeruginosa, 3 h
[2] = system: A. baumannii strain 98-37-09; format: cell-based, Acinetobacter baumannii; conditions: 50 μM final drug concentration; for fold induction at 50 µM: Acinetobacter baumannii, 983709, 3 h
K. pneumoniae = format: cell-based, Klebsiella pneumoniae; conditions: 50 μM final drug concentration; for fold induction at 50 µM: Klebsiella pneumoniae, 3 h
E. faecium = format: cell-based, Enterococcus faecium; conditions: 50 μM final drug concentration; for fold induction at 50 µM: Enterococcus faecium, 3 h
E. coli = format: cell-based, Escherichia coli; conditions: 50 μM final drug concentration; for fold induction at 50 µM: Escherichia coli, 3 h
[3] = 384-well format, cutoff for positive-scoring molecules 3-fold increase
[4] = planktonic S. aureus, cutoff for positive-scoring molecules 3-fold increase, read-out: AK-based Prestwick Library Screening Results, S. aureus (increase in extracellular AK activity)
[5] = planktonic E. cloacae, cutoff for positive-scoring molecules 3-fold increase, read-out: AK-based Prestwick Library Screening Results, E. cloacae (increase in extracellular AK activity)
[6] = planktonic P. aeruginosa, cutoff for positive-scoring molecules 3-fold increase, read-out: AK-based Prestwick Library Screening Results, P. aeruginosa (increase in extracellular AK activity)
[7] = planktonic A. baumannii, cutoff for positive-scoring molecules 3-fold increase, read-out: AK-based Prestwick Library Screening Results, A. baumannii (increase in extracellular AK activity)
[8] = planktonic K. pneumoniae, cutoff for positive-scoring molecules 3-fold increase, read-out: AK-based Prestwick Library Screening Results, K. pneumoniae (increase in extracellular AK activity)
[9] = planktonic E. faecium, cutoff for positive-scoring molecules 3-fold increase, read-out: AK-based Prestwick Library Screening Results, E. faecium (increase in extracellular AK activity)
[10] = planktonic E. coli, cutoff for positive-scoring molecules 3-fold increase, read-out: AK-based Prestwick Library Screening Results, E. coli (increase in extracellular AK activity)
[11] = planktonic S. aureus, positive cutoff 3-fold increase, read-out: AK-based Prestwick library screening result, S. aureus (fold increase in extracellular AK activity)
[12] = planktonic E. cloacae, positive cutoff 3-fold increase, read-out: AK-based Prestwick library screening result, E. cloacae (fold increase in extracellular AK activity)
[13] = planktonic P. aeruginosa, positive cutoff 3-fold increase, read-out: AK-based Prestwick library screening result, P. aeruginosa (fold increase in extracellular AK activity)
[14] = planktonic A. baumannii, positive cutoff 3-fold increase, read-out: AK-based Prestwick library screening result, A. baumannii (fold increase in extracellular AK activity)
[15] = planktonic K. pneumoniae, positive cutoff 3-fold increase, read-out: AK-based Prestwick library screening result, K. pneumoniae (fold increase in extracellular AK activity)
[16] = planktonic E. faecium, positive cutoff 3-fold increase, read-out: AK-based Prestwick library screening result, E. faecium (fold increase in extracellular AK activity)
[17] = planktonic E. coli, positive cutoff 3-fold increase, read-out: AK-based Prestwick library screening result, E. coli (fold increase in extracellular AK activity)

C[C@]12CCC(=O)C=C1CC[C@@H]1[C@@H]2C(=O)C[C@@]2(C)[C@H]1CC[C@]2(O)C(=O)CO [Cortisone]
AK-based Prestwick Library Screening Results, S. aureus (increase in extracellular AK activity) [1, 3]: 0.8 | AK-based Prestwick Library Screening Results, E. cloacae (increase in extracellular AK activity) (E. cloacae; [3]): 1.2 | AK-based Prestwick Library Screening Results, P. aeruginosa (increase in extracellular AK activity) (P. aeruginosa; [3]): 1.0 | AK-based Prestwick Library Screening Results, A. baumannii (increase in extracellular AK activity) [2, 3]: 1.0 | AK-based Prestwick Library Screening Results, K. pneumoniae (increase in extracellular AK activity) (K. pneumoniae; [3]): 0.8 | AK-based Prestwick Library Screening Results, E. faecium (increase in extracellular AK activity) (E. faecium; [3]): 0.9 | AK-based Prestwick Library Screening Results, E. coli (increase in extracellular AK activity) (E. coli; [3]): 0.9

COC(=O)[C@H]1[C@H]2C[C@H]3c4[nH]c5ccccc5c4CCN3C[C@@H]2CC[C@@H]1O.Cl [Corynanthine hydrochloride]
AK-based Prestwick Library Screening Results, S. aureus (increase in extracellular AK activity) ([1]; planktonic S. aureus, cutoff for positive-scoring molecules 3-fold increase): 0.7 | AK-based Prestwick Library Screening Results, E. cloacae (increase in extracellular AK activity) (E. cloacae; planktonic E. cloacae, cutoff for positive-scoring molecules 3-fold increase): 0.8 | AK-based Prestwick Library Screening Results, P. aeruginosa (increase in extracellular AK activity) (P. aeruginosa; planktonic P. aeruginosa, cutoff for positive-scoring molecules 3-fold increase): 0.7 | AK-based Prestwick Library Screening Results, A. baumannii (increase in extracellular AK activity) ([2]; planktonic A. baumannii, cutoff for positive-scoring molecules 3-fold increase): 0.6 | AK-based Prestwick Library Screening Results, K. pneumoniae (increase in extracellular AK activity) (K. pneumoniae; planktonic K. pneumoniae, cutoff for positive-scoring molecules 3-fold increase): 0.6 | AK-based Prestwick Library Screening Results, E. faecium (increase in extracellular AK activity) (E. faecium; planktonic E. faecium, cutoff for positive-scoring molecules 3-fold increase): 1.0 | AK-based Prestwick Library Screening Results, E. coli (increase in extracellular AK activity) (E. coli; planktonic E. coli, cutoff for positive-scoring molecules 3-fold increase): 0.7

O=C(O)c1cc(=O)c2c(OCC(O)COc3cccc4oc(C(=O)O)cc(=O)c34)cccc2o1 [Cromolyn disodium salt]
fold induction at 50 µM ([1]; planktonic, cutoff for positive-scoring molecules 3-fold increase, read-out: AK-based Prestwick Library Screening Results, S. aureus (fold increase in extracellular AK activity)): 0.7 | fold induction at 50 µM (E. cloacae; planktonic, cutoff for positive-scoring molecules 3-fold increase, read-out: AK-based Prestwick Library Screening Results, E. cloacae (fold increase in extracellular AK activity)): 1 | fold induction at 50 µM (P. aeruginosa; planktonic, cutoff for positive-scoring molecules 3-fold increase, read-out: AK-based Prestwick Library Screening Results, P. aeruginosa (fold increase in extracellular AK activity)): 0.8 | fold induction at 50 µM ([2]; planktonic, cutoff for positive-scoring molecules 3-fold increase, read-out: AK-based Prestwick Library Screening Results, A. baumannii (fold increase in extracellular AK activity)): 0.9 | fold induction at 50 µM (K. pneumoniae; planktonic, cutoff for positive-scoring molecules 3-fold increase, read-out: AK-based Prestwick Library Screening Results, K. pneumoniae (fold increase in extracellular AK activity)): 0.7 | fold induction at 50 µM (E. faecium; planktonic, cutoff for positive-scoring molecules 3-fold increase, read-out: AK-based Prestwick Library Screening Results, E. faecium (fold increase in extracellular AK activity)): 0.9 | fold induction at 50 µM (E. coli; planktonic, cutoff for positive-scoring molecules 3-fold increase, read-out: AK-based Prestwick Library Screening Results, E. coli (fold increase in extracellular AK activity)): 0.7

CC=CC(=O)N(CC)c1ccccc1C [Crotamiton]
AK-based Prestwick Library Screening Results, S. aureus (fold increase in extracellular AK activity) ([1]; […]): 1.3 | AK-based Prestwick Library Screening Results, E. cloacae (fold increase in extracellular AK activity) (E. cloacae; […]): 1.3 | AK-based Prestwick Library Screening Results, P. aeruginosa (fold increase in extracellular AK activity) (P. aeruginosa; […]): 1.3 | AK-based Prestwick Library Screening Results, A. baumannii (fold increase in extracellular AK activity) ([2]; […]): 1.3 | AK-based Prestwick Library Screening Results, K. pneumoniae (fold increase in extracellular AK activity) (K. pneumoniae; […]): 1.1 | AK-based Prestwick Library Screening Results, E. faecium (fold increase in extracellular AK activity) (E. faecium; […]): 1.1 | AK-based Prestwick Library Screening Results, E. coli (fold increase in extracellular AK activity) (E. coli; […]): 1.5

CN1CCN(C(c2ccccc2)c2ccccc2)CC1 [Cyclizine hydrochloride]
fold induction at 50 µM [1, 4]: 0.9 | fold induction at 50 µM (E. cloacae; [5]): 0.9 | fold induction at 50 µM (P. aeruginosa; [6]): 0.9 | fold induction at 50 µM [2, 7]: 1 | fold induction at 50 µM (K. pneumoniae; [8]): 0.8 | fold induction at 50 µM (E. faecium; [9]): 1 | fold induction at 50 µM (E. coli; [10]): 0.9

CN(C)CCC=C1c2ccccc2C=Cc2ccccc21 [Cyclobenzaprine hydrochloride]
fold induction at 50 µM [1, 4]: 1 | fold induction at 50 µM (E. cloacae; [5]): 1.2 | fold induction at 50 µM (P. aeruginosa; [6]): 1.1 | fold induction at 50 µM [2, 7]: 1.2 | fold induction at 50 µM (K. pneumoniae; [8]): 0.9 | fold induction at 50 µM (E. faecium; [9]): 1 | fold induction at 50 µM (E. coli; [10]): 1.3

C[C@@H]1C[C@@H]([C@H](O)CC2CC(=O)NC(=O)C2)C(=O)[C@@H](C)C1 [Cycloheximide]
fold induction at 50 µM ([1]; […], read-out: AK-based Prestwick Library Screening Results, S. aureus (fold increase in extracellular AK activity)): 1.1 | fold induction at 50 µM (E. cloacae; […], read-out: AK-based Prestwick Library Screening Results, E. cloacae (fold increase in extracellular AK activity)): 0.9 | fold induction at 50 µM (P. aeruginosa; […], read-out: AK-based Prestwick Library Screening Results, P. aeruginosa (fold increase in extracellular AK activity)): 1.1 | fold induction at 50 µM ([2]; […], read-out: AK-based Prestwick Library Screening Results, A. baumannii (fold increase in extracellular AK activity)): 1.2 | fold induction at 50 µM (K. pneumoniae; […], read-out: AK-based Prestwick Library Screening Results, K. pneumoniae (fold increase in extracellular AK activity)): 1 | fold induction at 50 µM (E. faecium; […], read-out: AK-based Prestwick Library Screening Results, E. faecium (fold increase in extracellular AK activity)): 1 | fold induction at 50 µM (E. coli; […], read-out: AK-based Prestwick Library Screening Results, E. coli (fold increase in extracellular AK activity)): 1.3

NS(=O)(=O)c1cc2c(cc1Cl)NC(CC1CCCC1)NS2(=O)=O (centres unmarked) [Cyclopenthiazide]
fold induction at 50 µM [1, 11]: 0.7 | fold induction at 50 µM (E. cloacae; [12]): 1.2 | fold induction at 50 µM (P. aeruginosa; [13]): 0.8 | fold induction at 50 µM [2, 14]: 0.8 | fold induction at 50 µM (K. pneumoniae; [15]): 0.8 | fold induction at 50 µM (E. faecium; [16]): 0.9 | fold induction at 50 µM (E. coli; [17]): 0.8

CN(C)CCOC(=O)C(c1ccccc1)C1(O)CCCC1 (centres unmarked) [Cyclopentolate hydrochloride]
fold induction at 50 µM [1, 11]: 1.1 | fold induction at 50 µM (E. cloacae; [12]): 1.3 | fold induction at 50 µM (P. aeruginosa; [13]): 1.1 | fold induction at 50 µM [2, 14]: 1 | fold induction at 50 µM (K. pneumoniae; [15]): 1 | fold induction at 50 µM (E. faecium; [16]): 1 | fold induction at 50 µM (E. coli; [17]): 1.2

CN1CCC(=C2c3ccccc3C=Cc3ccccc32)CC1 [Cyproheptadine hydrochloride]
fold induction at 50 µM ([1]; 384-well format, cutoff for positive-scoring molecules 3-fold increase, read-out: AK-based Prestwick Library Screening Results, S. aureus (increase in extracellular AK activity)): 0.6 | fold induction at 50 µM (E. cloacae; 384-well format, cutoff for positive-scoring molecules 3-fold increase, read-out: AK-based Prestwick Library Screening Results, E. cloacae (increase in extracellular AK activity)): 0.9 | fold induction at 50 µM (P. aeruginosa; 384-well format, cutoff for positive-scoring molecules 3-fold increase, read-out: AK-based Prestwick Library Screening Results, P. aeruginosa (increase in extracellular AK activity)): 0.9 | fold induction at 50 µM ([2]; 384-well format, cutoff for positive-scoring molecules 3-fold increase, read-out: AK-based Prestwick Library Screening Results, A. baumannii (increase in extracellular AK activity)): 0.9 | fold induction at 50 µM (K. pneumoniae; 384-well format, cutoff for positive-scoring molecules 3-fold increase, read-out: AK-based Prestwick Library Screening Results, K. pneumoniae (increase in extracellular AK activity)): 0.6 | fold induction at 50 µM (E. faecium; 384-well format, cutoff for positive-scoring molecules 3-fold increase, read-out: AK-based Prestwick Library Screening Results, E. faecium (increase in extracellular AK activity)): 0.9 | fold induction at 50 µM (E. coli; 384-well format, cutoff for positive-scoring molecules 3-fold increase, read-out: AK-based Prestwick Library Screening Results, E. coli (increase in extracellular AK activity)): 0.9

CC(=O)O[C@]1(C(C)=O)CC[C@H]2[C@@H]3C=C(Cl)C4=CC(=O)[C@@H]5C[C@@H]5[C@]4(C)[C@H]3CC[C@@]21C [Cyproterone acetate]
fold induction at 50 µM [1, 11]: 0.6 | fold induction at 50 µM (E. cloacae; [12]): 1.4 | fold induction at 50 µM (P. aeruginosa; [13]): 0.8 | fold induction at 50 µM [2, 14]: 0.8 | fold induction at 50 µM (K. pneumoniae; [15]): 0.7 | fold induction at 50 µM (E. faecium; [16]): 1 | fold induction at 50 µM (E. coli; [17]): 0.8
